{"source": "patent US20220133679A1", "about": "“EFFLUX INHIBITOR COMPOSITIONS AND METHODS OF TREATMENT USING THE SAME” (Izumi Technology, LLC, priority 2012, published 2022)", "key": {"[1]": {"set-up": "species or system female Sprague-Dawley rats", "conditions": "rat, in vivo, 100 mg/kg", "protocol": "Studies were conducted in female Sprague-Dawley rats. […] The selected 100 mg/kg dose is well above the level where nonlinear pharmacokinetics have been documented. Ten animals were used at weekly intervals between each dosing to allow washout of the drug from the previous dosing.\nElacridar suspension formulation was prepared by weighing 100.03 mg of elacridar, which was first suspended in 5 ml of water, followed by 5 ml of vehicle solution (2.5% w/v of hydroxypropyl methyl cellulose (HPMC) and 2% v/v of Tween 80). This suspension was stirred for about 2.5 hours prior to dosing. The final concentration was 10 mg/ml. This suspension was given at 10 μl per gram body weight to achieve a dose level of 100 mg/kg\nElacridar nanoparticle (NP) suspensions were used as received, except for a final 5-fold dilution step to obtain a NP suspension of 10 mg/ml of elacridar.\nThere were three study groups: 1) Elacridar Suspension (n=4); 2) Elacridar TPGS nanoparticles (n=5); and 3) Elacridar Poloxamer nanoparticles (n=5). All animals received elacridar orally by gavage under light isoflurane anesthesia. The animals were fasted for a period of 3 h before drug administration. Food pellets were returned to the cages after the 4 h sampling point. Blood samples from the tail vein at: 15, 30 min, 1, 2, 4, 7, 24, 30 and 48 hours. Samples were kept on ice and centrifuged within 2 h to separate plasma. Plasma was stored at −20° C.\nFormulation for i.v. administration was prepared by weighing 61.12 mg of elacridar and dissolving this in 2.056 ml of DMSO. The final concentration was 30 mg/ml. Animals (n=4) received […] per gram body weight (5 mg/kg). Blood samples were taken from the tail vein at: 5, 15, 30 min, 1, 2, 4, 7, 24, 30 and 48 h. Samples were kept on ice and centrifuged within 2 h to separate plasma. Plasma was stored at −20° C.\nSamples were pre-treated as follows. […] 1000 μl of diethyl ether was added."}, "[2]": {"experiment": "in vitro", "format": "in vitro ADME", "conditions": "dog, MDCK", "protocol": "(§1) An in vitro permeability assay using the MDCK cell line was performed to investigate the ability of elacridar to cross cellular membranes. […] Specifically, non-transduced MDCK cells, expressing only basal amounts of endogenous ABC-transporters, were seeded in the apical compartments of a 24 mm Transwell plate (3.0 μm Pore Polycarbonate Membrane Inserts) and incubated at 37° C. and 5.0% CO2 conditions until confluency was reached. Both apical-to-basolateral and basolateral-to-apical transport was analyzed in triplicate. To each donor compartment, 2 ml of Minimal Essential Medium (supplemented with 20% Fetal Bovine Serum) containing 1 μM elacridar and 50 nCi/ml (1.85 kBq/ml)^14C-inulin was added, while each acceptor compartment was filled with 2 ml blank Minimal Essential Medium (supplemented with 20% Fetal Bovine Serum). Samples of 100 μl were taken from each acceptor compartment at t=5 min, 30 min, 1 h, 2 h and 4 h as well as from all donor solutions for HPLC-MS/MS analysis of elacridar.\n(§2) Samples for HPLC-MS/MS analysis were prepared as follows. Samples (50 μl) were pipetted into a 2 ml eppendorf vial and the internal standard (IS) solution (1 μM of elacridar-d4) in Minimal Essential Medium (supplemented with 20% Fetal Bovine Serum) and 1 ml of diethyl ether were added. […] An aliquot of 75 μl was subjected to HPLC-MS/MS using the conditions and set-up as described above for elacridar.\n(§3) Leakage of the transwell membrane, as indicated by ^14C-inulin accumulation in the acceptor compartment, was analyzed in 10 μl samples from all time points as well as donor solutions. To each sample, 3 ml of Ultima Gold solution was added and vials were mixed thoroughly prior to radioactivity analysis using a Liquid Scintillation Counter."}, "[3]": {"test_system": "MDCK cell monolayer", "experiment": "in vitro", "format": "in vitro ADME", "conditions": "dog, 1 μM", "protocol": "as §1, §2, §3"}}}
{"smiles": "COc1cc2c(cc1OC)CN(CCc1ccc(NC(=O)c3cccc4c(=O)c5cccc(OC)c5[nH]c34)cc1)CC2", "note": "[elacridar]", "values": [{"measurement": "tolerability of dosing", "setting": "[1]", "value": "tolerated these doses of elacridar without any problem"}, {"measurement": "Papp A→B at 4 h, 1 μM", "setting": "[2]", "value": 11.2, "unit": "×10⁻⁶ cm/s"}, {"measurement": "Papp B→A at 4 h, 1 μM", "setting": "[2]", "value": 10.9, "unit": "×10⁻⁶ cm/s"}, {"measurement": "amount of elacridar at the receptor side relative to drug content at the donor side", "setting": "[3]", "value": "about 6%"}]}
